Patent EP4356928A1, “NUCLEOSIDE DIPHOSPHATE OR DIPHOSPHONATE PRODRUGS, OR NUCLEOSIDE ANALOGUE DIPHOSPHATE OR DIPHOSPHONATE PRODRUGS” (Universität Hamburg, priority 2022, dated 2024)
Like-named read-outs stand apart in the source and are kept apart here.

Legend:
[1] = Cytotoxicity: inhibition of CD4+ T-cell (CEM) proliferation; details: human
Protocol: (§1) In addition, a selectivity index (SI) was determined. The selectivity index is the ratio between cell toxicity and […], the ratio between cell toxicity (see Table 4) and EC50 CEM/TK^- (see right column of Table 3).
(§2) Table 4: Cytotoxicity (CC50 [µM]) and selectivity index (SI) of tested prodrug compounds.

CD4^+ T-cell (CEM) = assay: as above; details: ratio between cell toxicity (CC50) and EC50 CEM/TK-
Protocol: as §1, §2

HIV-2 (ROD) [2] = assay: Inhibition of HIV-2 replication in wild-type CEM/0 cell cultures; type: cell-based; details: Human immunodeficiency virus 2, CCRF-CEM, read-out: Antiviral activity EC50 HIV-2 (ROD)
Protocol: (§3) All β-phosph(on)ate prodrug compounds were evaluated for their activity to inhibit the replication of HIV in HIV-1- and HIV-2-infected wild-type (CEM/0) cell cultures and in HIV-2-infected mutant thymidine kinase-deficient (CEM/TK^-) cell cultures (see Table 3).
(§4) Antiviral activity was determined in CD4^+ T-lymphocytes: 50% effective concentration (EC50 [µM]).

HIV-2 (ROD) [3] = assay: Inhibition of HIV-2 replication in thymidine kinase-deficient CEM/TK- cell cultures; type: cell-based; details: for EC50: Human immunodeficiency virus 2, CEM-TK(-), read-out: Antiviral activity EC50 CEM/TK^- HIV-2 (ROD)
Protocol: as §3, §4

HIV-1 (HE) = assay: Inhibition of HIV-1 replication in wild-type CEM/0 cell cultures; type: cell-based; details: Human immunodeficiency virus 1, CCRF-CEM, read-out: Antiviral activity EC50 HIV-1 (HE)
Protocol: as §3, §4

[4] = Chemical stability (hydrolysis half-life) in phosphate-buffered saline, RP-18 HPLC; type: physicochemical; details: phosphate buffer saline (PBS, pH 7.3); read-out: Half-lives PBS (converted)
Protocol: (§5) Stability tests regarding a number of differently substituted β-phosphate and β-phosphonate nucleoside prodrugs were conducted. The chemical and biological stability was tested in different media (phosphate-buffered saline PBS (pH 7.3), pig liver esterase (PLE), CEM cell extracts) and rated by determining the half-live of these compounds. The products of the respective hydrolysis were detected by analytical RP-18 HPLC.
(§6) Results of the hydrolysis experiments in different media (PBS (pH = 7.3), PLE (pig liver esterase) in PBS, or CEM-T cell extracts) are shown in Table 2.
(§7) Table 2: Half-lives (in hours) of the β-phosph(on)ate prodrug compounds of the invention in phosphate buffer saline (PBS, pH 7.3), PLE (100 units/mL pig liver esterase in PBS) and CEM/0 cell extracts. n.d. = not determined.

[5] = Stability (hydrolysis half-life) in CEM/0 cell extracts, RP-18 HPLC; type: in vitro ADME; details: human, read-out: Half-lives CEM T cell extracts (converted)
Protocol: as §5, §6, §7

[6] = Stability (hydrolysis half-life) against pig liver esterase in PBS, RP-18 HPLC; type: in vitro ADME; details: pH 7.3; 100 units/mL pig liver esterase in PBS; read-out: Half-lives PLE (converted)
Protocol: as §5, §6, §7

[7] = CD4+ T-lymphocytes (CEM/0), mean ±SD of n=2-3

Compound	CC50 [1] [nM]	Selectivity index (SI) (CD4^+ T-cell (CEM))	EC50 (HIV-2 (ROD) [2]; [7]) [nM]	EC50 (HIV-2 (ROD) [3]) [nM]	EC50 (HIV-1 (HE); [7]) [nM]	EC50 (HIV-2 (ROD) [2]) [nM]	CC50 ([1]; cem cells) [nM]	half-life [4] [days]	half-life [5] [h]	half-life [6] [h]	improvement of antiviral activity as compared to the nucleoside analogue d4T (HIV-2 (ROD) [3]; HIV-2 in CEM/TK- cells, versus d4T) [fold]	EC50 (HIV-1 (HE)) [nM]
Nc1nc(NC2CC2)c2ncn([C@H]3C=C[C@@H](CO)C3)c2n1 [ABC, abacavir, reference compound]	> 100000	>50	3510 ± 3250	1980 ± 860	9390 ± 2450	–	–	–	–	–	–	–
Cc1cn([C@H]2C[C@H](N=[N+]=[N-])[C@@H](CO)O2)c(=O)[nH]c1=O [AZT, zidovudine, reference compound]	> 100000	>1	–	> 100000	14 ± 8.5	3.4 ± 2.1	–	–	–	–	–	–
Cc1cn([C@H]2C[C@H](F)[C@@H](CO)O2)c(=O)[nH]c1=O [FLT, alovudine, reference compound]	> 100000	–	–	> 100000	2.5 ± 2.9	4.3 ± 1.7	–	–	–	–	–	–
CCCCCCCCCCCCCCCCCCOP(=O)(OCCCC)OP(=O)(O)OC[C@@H]1C=C[C@H](n2cc(C)c(=O)[nH]c2=O)O1 (some centres unmarked) [No 16]	–	–	–	1.1	–	4.4 ± 1.3	41300	> 41.7	> 18	> 150	45.400	33 ± 22
CCCCCCCCCCCCCCCCCCOP(=O)(OCC(CC)CCCC)OP(=O)(O)OC[C@@H]1C=C[C@H](n2cc(C)c(=O)[nH]c2=O)O1 (some centres unmarked) [No 17]	–	4226	–	11 ± 0.71	–	45 ± 46	46500	> 41.7	–	–	–	71 ± 52
CCCCCCCCCCCCCCCCCCP(=O)(OCCCC)OP(=O)(O)OC[C@@H]1C=C[C@H](n2cc(C)c(=O)[nH]c2=O)O1 (some centres unmarked) [No 18]	–	20309	–	2.1 ± 3.4	–	16 ± 8.3	42600	> 125	> 40	> 150	–	31 ± 27
CCCCCCCCCCCCCCCCCCOP(=O)(OCCCC)OP(=O)(O)OC[C@H]1O[C@@H](n2cc(C)c(=O)[nH]c2=O)C[C@@H]1N=[N+]=[N-] (some centres unmarked) [No 19]	–	1112	–	43 ± 48	–	25 ± 9	47800	42.8	> 8	> 150	–	58 ± 50
CCCCCCCCCCCCCCCCCCP(=O)(OCCCC)OP(=O)(O)OC[C@H]1O[C@@H](n2cc(C)c(=O)[nH]c2=O)C[C@@H]1N=[N+]=[N-] (some centres unmarked) [No 20]	–	487	–	170 ± 130	–	20 ± 8	82700	> 83.3	> 18	> 150	–	87 ± 55
CCCCCCCCCCCCCCCCCCOP(=O)(OCCCC)OP(=O)(O)OC[C@H]1O[C@@H](n2cc(C)c(=O)[nH]c2=O)C[C@@H]1F (some centres unmarked) [No 21]	–	3447	–	17 ± 16	–	40 ± 28	58600 ± 19400	> 41.7	> 10	> 150	–	6.7 ± 2.1
CCCCCCCCCCCCCCCCCCP(=O)(OCCCC)OP(=O)(O)OC[C@H]1O[C@@H](n2cc(C)c(=O)[nH]c2=O)C[C@@H]1F (some centres unmarked) [No 22]	–	3620	–	15 ± 4	–	42 ± 13	54300 ± 15200	> 83.3	–	–	–	6.3 ± 4.6
CCCCCCCCCCCCCCCCCCOP(=O)(OCCCC)OP(=O)(O)OC[C@H]1O[C@@H](n2ccc(=O)[nH]c2=O)C[C@@H]1F (some centres unmarked) [No 23]	–	213	–	210 ± 100	–	150 ± 20	44800	33.2	–	–	–	140 ± 71
CCCCCCCCCCCCCCCCCCP(=O)(OCCCC)OP(=O)(O)OC[C@H]1O[C@@H](n2ccc(=O)[nH]c2=O)C[C@@H]1F (some centres unmarked) [No 24]	–	1159	–	51 ± 69	–	76 ± 77	59100 ± 20800	> 83.3	> 20	> 150	–	57 ± 9
CCCCCCCCCCCCCCCCCCOP(=O)(OCCCC)OP(=O)(O)OC[C@@H]1C=C[C@H](n2cnc3c(NC4CC4)nc(N)nc32)C1 (some centres unmarked) [No 25]	–	3387	–	3.1 ± 2.7	–	8.7 ± 0.4	10500 ± 4600	2.33	6.7	41	–	16 ± 4
CCCCCCCCCCCCCCCCCCP(=O)(OCCCC)OP(=O)(O)OC[C@@H]1C=C[C@H](n2cnc3c(NC4CC4)nc(N)nc32)C1 (some centres unmarked) [No 26]	–	>100000	–	< 1	–	26 ± 18	> 100000	> 41.7	> 10	> 150	–	34 ± 13
Cc1cn([C@H]2C=C[C@@H](CO)O2)c(=O)[nH]c1=O [d4T, stavudine, reference compound]	> 50000	>1	–	> 50000	–	970 ± 500	–	–	–	–	–	330 ± 130
